For 22 molecules, IC50 results are on record in US20240285614A1, “PHENOL RIBONUCLEOTIDE REDUCTASE (RNR) INHIBITORS AND USES THEREOF” (Boundless Bio, Inc., priority 2023, published 2024).

One test has as its target T1, RNR (RNR1:RNR2 1:1) (Homo sapiens, UniProt P23921+P31350).
T1 sequence (P23921 1-792): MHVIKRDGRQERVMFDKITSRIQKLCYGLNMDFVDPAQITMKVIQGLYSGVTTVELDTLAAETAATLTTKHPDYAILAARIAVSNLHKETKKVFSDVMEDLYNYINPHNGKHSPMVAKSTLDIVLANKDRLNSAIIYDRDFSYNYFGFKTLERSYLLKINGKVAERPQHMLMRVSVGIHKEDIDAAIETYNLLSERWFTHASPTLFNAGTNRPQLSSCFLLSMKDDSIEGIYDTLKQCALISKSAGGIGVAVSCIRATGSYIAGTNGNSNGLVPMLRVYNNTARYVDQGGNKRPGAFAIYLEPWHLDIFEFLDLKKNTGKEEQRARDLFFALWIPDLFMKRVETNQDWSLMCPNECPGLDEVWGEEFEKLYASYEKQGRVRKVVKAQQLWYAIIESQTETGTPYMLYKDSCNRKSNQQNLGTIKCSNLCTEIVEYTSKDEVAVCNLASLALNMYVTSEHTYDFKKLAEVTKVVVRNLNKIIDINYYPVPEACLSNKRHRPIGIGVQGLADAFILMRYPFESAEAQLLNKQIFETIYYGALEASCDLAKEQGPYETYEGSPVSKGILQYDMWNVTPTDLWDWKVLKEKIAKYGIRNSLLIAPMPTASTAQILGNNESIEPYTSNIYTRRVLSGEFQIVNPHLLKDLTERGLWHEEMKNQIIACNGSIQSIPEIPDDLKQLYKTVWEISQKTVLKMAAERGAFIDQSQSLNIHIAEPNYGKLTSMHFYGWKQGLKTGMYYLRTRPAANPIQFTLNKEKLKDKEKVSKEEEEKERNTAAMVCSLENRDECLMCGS
T1 sequence (P31350 1-389): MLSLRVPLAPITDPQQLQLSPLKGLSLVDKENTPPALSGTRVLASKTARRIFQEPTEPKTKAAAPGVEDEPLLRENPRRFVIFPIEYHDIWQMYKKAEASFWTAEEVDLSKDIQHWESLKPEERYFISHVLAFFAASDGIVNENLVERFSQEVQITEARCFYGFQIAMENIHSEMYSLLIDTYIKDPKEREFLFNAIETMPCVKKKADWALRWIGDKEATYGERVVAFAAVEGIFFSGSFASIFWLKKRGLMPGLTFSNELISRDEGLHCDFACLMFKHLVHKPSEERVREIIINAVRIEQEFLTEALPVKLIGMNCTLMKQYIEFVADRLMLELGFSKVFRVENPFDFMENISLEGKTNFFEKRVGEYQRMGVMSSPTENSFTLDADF
Put plainly: RNR enzyme activity, rapid-fire mass spectrometry (RF/MS) assay. The format is biochemical. To be noted: RNR 50 nM, 1:1 (RNR1:RNR2); CDP 5 μM; ATP 1 mM; 37° C., 45 min; compounds screened up to 50 μM. As to the method: A rapid-fire mass spectrometry (RF/MS) assay was used to assess RNR enzyme activity using a 384 well plate and a robotic platform.
The plate layout included two validated reference compounds (Triapine (3-AP) and Hydroxyurea (HU)): • A dose response in duplicate, top concentration: 5 μM (3-AP) and 250 μM (HU), semi-log • dilutions. • Spike wells in triplicate randomly spotted at four concentrations: • 250 μM, 100 μM, 30 μM and 2 μM for HU • 5 μM, 2 μM, 0.6 μM and 0.04 μM for 3-AP
First, the multidrop pipes were saturated for 30 minutes with enzymatic solution. Then 30 μL of Stop solution was distributed in column 24. Next, 15 μL of enzyme was distributed in column 1 to 24. Next, a pre-incubation step of 15 minutes at room temperature occurred, followed by distribution of 15 μL of substrate solution (column 1 to 24). Next, the plate was incubated for 45 minutes at 37° C. 30 μL of Stop solution was distributed to columns 1 to 23.
The final parameters for the enzyme reactions were: • Incubation: 37° C., 45 min • [CDP]: 5 μM: [ATP]: 1 mM; [NADPH]: No • [RNR]final: 50 nM with 1:1 (RNR1:RNR2) ratio • Final volume: 30 μL • Stop solution: 6% HCOOH containing 2 μM of 15

Test [1] relates to pCHK1 (S345) in Colo320 DM cells. Put plainly: Alphalisa assay, detection of pCHK1 (S345) in Colo320 DM cells. Conditions: Homo sapiens, COLO 320DM, compound incubation overnight (approximately 16 hours). It counts as cell-based. As to the method:
Colo320 DM cells (ATCC #CCL-220, derived from human colorectal adenocarcinoma, Dukes' type C) were seeded on a 96-well, cell culture treated assay plate at a density of 50,000 cells/well in 200 μL of RPMI-1640 media supplemented with 10% Fetal Bovine Serum and incubated at 37° C. overnight. The following day, test compound dilutions were added directly to the plated cells by a Tecan digital dispenser to a final DMSO concentration of <0.5%, and incubated at 37° C. overnight (approximately 16 hours). The following day all cull culture media was removed from the cells. 75 μL of 1× AlphaLisa lysis buffer was added to each well and plates were agitated on a shaker for 30 minutes at room temperature. The lysis of cells and detection of pCHK1 (S345) were performed with regents contained within the AlphaLisa Sure Fire assay kit (Perkin Elmer #ALSU-PCHK1-A) according to the manufacturer's instructions. 10 μL of each lysate was then transferred to a white, 384-well assay plate (Perkin Elmer #6008280), 5 μL of Acceptor mix was then added to each well of lysate in the white, 384-well assay plate and incubated in the dark at room temperature for 60 minutes. 5 μL of Donor mix was then added to each well of the white, 384-well assay plate in subdued light and incubated at room temperature for 60 minutes. Plates were read on an Alpha Technology-compatible plate reader using standard AlphaLisa settings.
Background: Alpha assays give light when donor and acceptor beads are brought close together.

With `CN(C1CCN(c2ccc(O)cc2)CC1)S(=O)(=O)c1ccc2cc[nH]c2c1` [compound 12, N-(1-(4-hydroxyphenyl)piperidin-4-yl)-N-methyl-1H-indole-6-sulfonamide], the concentration for half-maximal inhibition (IC50) against RNR (RNR1:RNR2 1:1) was ≤ 0.05 µM; in test [1], 5 to 10 µM.
As for `CN(c1ccc(O)cc1)C1CN(S(=O)(=O)c2ccc3cc[nH]c3c2)C1` [compound 13, 4-((1-((1H-indol-6-yl)sulfonyl)azetidin-3-yl)(methyl)amino)phenol], the 50% inhibitory concentration (IC50) at RNR (RNR1:RNR2 1:1) is ≤ 0.05 µM; in test [1] it was ≤ 1 µM.
On to `O=S(=O)(c1ccc2cc[nH]c2c1)N1CCCN(c2ccc(O)cc2)CC1` [compound 14, 4-(4-((1H-indol-6-yl)sulfonyl)-1,4-diazepan-1-yl)phenol], for which the figures for the IC50 (against RNR (RNR1:RNR2 1:1); in test [1]) were ≤ 0.05 µM and 5 to 10 µM, respectively.
On to `CN(c1ccc(O)cc1)C1CCN(S(=O)(=O)c2ccc3cc[nH]c3c2)CC1` [compound 15, 4-((1-((1H-indol-6-yl)sulfonyl)piperidin-4-yl)(methyl)amino)phenol], for which the figures for the IC50 (against RNR (RNR1:RNR2 1:1); in test [1]) were 0.05 to 0.1 µM and 1 to 5 µM, respectively.
As for `CN(C1CN(c2ccc(O)cc2)C1)S(=O)(=O)c1ccc2cc[nH]c2c1` [compound 16, N-(1-(4-hydroxyphenyl)azetidin-3-yl)-N-methyl-1H-indole-6-sulfonamide], the IC50 fell in the range of 0.1 to 0.5 µM at RNR (RNR1:RNR2 1:1) and 1 to 5 µM in test [1].
As for `O=S(=O)(c1ccc2cc[nH]c2c1)N1C[C@H]2COC[C@@H](C1)N2c1ccc(O)cc1` [compound 17, 4-((1R,5S)-7-((1H-indol-6-yl)sulfonyl)-3-oxa-7,9-diazabicyclo[3.3.1]nonan-9-yl)phenol], the half-maximal inhibitory concentration (IC50) was ≤ 0.05 µM against RNR (RNR1:RNR2 1:1) and ≤ 1 µM in test [1].
In the same order, the values of `CN(c1ccc(O)cc1)C1CN(S(=O)(=O)c2ccc3cn[nH]c3c2)C1` [compound 18, 4-((1-((1H-indazol-6-yl)sulfonyl)azetidin-3-yl)(methyl)amino)phenol] are 0.1 to 0.5 µM and 10 to 50 µM.
With `O=S(=O)(c1ccc2cc[nH]c2c1)N1CC(N(c2ccc(O)cc2)C2CC2)C1` [compound 19, 4-((1-((1H-indol-6-yl)sulfonyl)azetidin-3-yl)(cyclopropyl)amino)phenol], the IC50 at RNR (RNR1:RNR2 1:1) is ≤ 0.05 µM; in test [1], 1 to 5 µM.
Consider `C[C@@H]1CN(c2ccc(O)cc2)CCN1S(=O)(=O)c1ccc2cc[nH]c2c1` [compound 21, (R)-4-(4-((1H-indol-6-yl)sulfonyl)-3-methylpiperazin-1-yl)phenol], for which the IC50 on RNR (RNR1:RNR2 1:1) is ≤ 0.05 µM; in test [1] it was 1 to 5 µM.
Turning to `CN(c1ccc(O)cc1)C1CN(S(=O)(=O)c2cc3[nH]cc(Cl)c3cc2F)C1` [compound 22, 4-((1-((3-chloro-5-fluoro-1H-indol-6-yl)sulfonyl)azetidin-3-yl)(methyl)amino)phenol], the IC50 against RNR (RNR1:RNR2 1:1) was ≤ 0.05 µM; in test [1], 1 to 5 µM.
For `CN(c1ccc(O)cc1)C1CN(S(=O)(=O)c2ccc3ccn(C)c3c2)C1` [compound 23, 4-(methyl(1-((1-methyl-1H-indol-6-yl)sulfonyl)azetidin-3-yl)amino)phenol], in that order: ≤ 0.05 µM and 1 to 5 µM.
On to `CN(c1ccc(O)cc1)C1CN(S(=O)(=O)c2cccc3[nH]ccc23)C1` [compound 24, 4-((1-((1H-indol-4-yl)sulfonyl)azetidin-3-yl)(methyl)amino)phenol], for which the values for the IC50 (against RNR (RNR1:RNR2 1:1); in test [1]) were 0.05 to 0.1 µM and 1 to 5 µM, respectively.
As for `CCN(c1ccc(O)cc1)C1CN(S(=O)(=O)c2ccc3cc[nH]c3c2)C1` [compound 25, 4-((1-((1H-indol-6-yl)sulfonyl)azetidin-3-yl)(ethyl)amino)phenol], the figures for the IC50 (against RNR (RNR1:RNR2 1:1); in test [1]) were ≤ 0.05 µM and ≤ 1 µM, respectively.
Take `O=S(=O)(c1ccc2cc[nH]c2c1)N1C[C@H]2CC[C@@H](C1)N2c1ccc(O)cc1` [compound 26, 4-((1R,5S)-3-((1H-indol-6-yl)sulfonyl)-3,8-diazabicyclo[3.2.1]octan-8-yl)phenol]: the values for the IC50 (against RNR (RNR1:RNR2 1:1); in test [1]) were 0.1 to 0.5 µM and 5 to 10 µM, respectively.
As to `CN(c1ccc(O)cc1)C1CN(S(=O)(=O)c2ccc3[nH]ccc3c2)C1` [compound 27, 4-((1-((1H-indol-5-yl)sulfonyl)azetidin-3-yl)(methyl)amino)phenol], the values for the IC50 (against RNR (RNR1:RNR2 1:1); in test [1]) were ≤ 0.05 µM and ≤ 1 µM, respectively.
As to `O=S(=O)(c1ccc2cc[nH]c2c1)N1C[C@H]2CCC[C@@H](C1)N2c1ccc(O)cc1` [compound 28, 4-((1R,5S)-3-((1H-indol-6-yl)sulfonyl)-3,9-diazabicyclo[3.3.1]nonan-9-yl)phenol], the results for the 50% inhibitory concentration (IC50) (against RNR (RNR1:RNR2 1:1); in test [1]) were ≤ 0.05 µM and 1 to 5 µM, respectively.
For `CN(CC1CN(S(=O)(=O)c2ccc3cc[nH]c3c2)C1)c1ccc(O)cc1` [compound 29, 4-(((1-((1H-indol-6-yl)sulfonyl)azetidin-3-yl)methyl)(methyl)amino) phenol], in that order: ≤ 0.05 µM and 5 to 10 µM.
As to `O=S(=O)(c1ccc2cc[nH]c2c1)N1[C@@H]2CCC[C@H]1CN(c1ccc(O)cc1)C2` [compound 34, 4-((1R,5S)-9-((1H-indol-6-yl)sulfonyl)-3,9-diazabicyclo[3.3.1]nonan-3-yl)phenol], the IC50 is ≤ 0.05 µM at RNR (RNR1:RNR2 1:1) and 1 to 5 µM in test [1].
In the same order, the values of `O=S(=O)(c1ccc2cc[nH]c2c1)N1CC2CC1CN2c1ccc(O)cc1` (centres unmarked) [compound 35, 4-(5-((1H-indol-6-yl)sulfonyl)-2,5-diazabicyclo[2.2.1]heptan-2-yl)phenol] are 0.1 to 0.5 µM and 10 to 50 µM.
For the molecule `O=S(=O)(c1ccc2cc[nH]c2c1)N1CCC(Oc2ccc(O)cc2)C1` (centres unmarked) [compound 40, 4-((1-((1H-indol-6-yl)sulfonyl)pyrrolidin-3-yl)oxy)phenol], the half-inhibitory concentration (IC50) against RNR (RNR1:RNR2 1:1) was ≤ 0.05 µM; in test [1], ≤ 1 µM.
For `Cn1ccc2ccc(S(=O)(=O)N3CCC4(CCN(c5ccc(O)cc5)CC4)C3)cc21` [compound 41, 4-(2-((1-methyl-1H-indol-6-yl)sulfonyl)-2,8-diazaspiro[4.5]decan-8-yl)phenol], in that order: 0.1 to 0.5 µM and 10 to 50 µM.
`O=S(=O)(c1ccc2cc[nH]c2c1)N1CCC(Oc2ccc(O)cc2)CC1` [compound 43, 4-((1-((1H-indol-6-yl)sulfonyl)piperidin-4-yl)oxy)phenol]: the half-maximal inhibitory concentration (IC50) was ≤ 0.05 µM against RNR (RNR1:RNR2 1:1) and 1 to 5 µM in test [1].

In general, IC50 refers to the point on the concentration scale where inhibition reaches its midpoint. The low end stands for inhibition by little substance, the high end for a need for much substance.
